Laboratory results published in patent US20240068023A1 (The Trustees of Indiana University, priority 2021, published 2024).
“Also recorded” adds a separate entry of the source. Like-named read-outs stand apart in the source and are kept apart here.

Assays:
[1] = equations 7, 10; decrease
Excerpt: Oral doses were either given as a tablet or a suspension depending on the patient's convenience. […] The time schedule was later modified to collect more samples through the 1st and 3rd inter-dose interval without samples through the 2n d interdose interval. This was done to aid in the optimal spread of the collected concentration time-points and improvement of estimation of absorption parameters of the oral doses. Some of the samples collected in a parallel study were also used whenever available with the consent of the patient to aid with the better estimation of the terminal elimination phase.
The first-order conditional estimation method with η-ε interaction (FOCE-I) was used throughout the model building process. The dose of the drug, concentrations of the drug and the metabolite were converted to their molar counterparts to aid in the accurate estimation of the pharmacokinetic parameters. Perl-Speaks-NONMEM v.4.9.0, R v.4.0.4 (R Foundation for Statistical Computing) with the Xpose4 package v.4.6.0, RStudio v1.4 and Pirana v.2.9.9 were used for data exploration, visualization, diagnostics and automation. Measured plasma concentrations that were below the LLOQ were dealt with using the M1 method (discarding concentrations below the LLOQ and estimate the PK parameters using the remaining concentrations). […] Model assessment was based on successful minimization, OFV, the proper running of the covariance step, relative standard error of the parameter estimates, the goodness of fit plots and eta-shrinkage. Model validation was done using visual predictive checks and a bootstrapping procedure. The predictive performance of the models was evaluated using prediction corrected visual predictive checks (n=1000). The robustness of the final parameter estimates and the stability of the final model were validated using bootstrapping by generating 1000 resampled datasets with replacement.
The model building process was done in a step-wise process. Multiple disposition models (one-, two- and three-compartment) were evaluated. Absorption models with various absorption parameters (first order absorption with and without lag, transit compartment models) were tried. Bioavailability was estimated as each patient had both intravenous and oral dose data. […] Vf was fixed to 1 in the model due to unidentifiability of the metabolite parameters as there were no urine data available for either the drug or the metabolite. CLF is the fraction of CL, the total clearance of the drug that contributes to CL2, the clearance towards the formation of the metabolite. […]
The demographic covariates checked were biological gender, body weight, fat free mass, BMI and race. […] AAG was measured at every time-point the concentrations were measured and were therefore used as a time-varying covariate in the model. […]

[2] = tested on: children undergoing PE and PSF surgeries; assay: CYP2B6 genetic associations with methadone-induced PONV and pain scores (Example 3); format: in vivo, human
Excerpt: This Example is a prospective, genotype-blinded, clinical observational study of children undergoing Nuss bar repair for pectus excavatum (PE) and posterior spinal fusion (PSF) repair for idiopathic scoliosis that received multidose methadone-based multimodal analgesia, performed in a tertiary care pediatric hospital.
Multimodal analgesia protocols as illustrated in TABLE 1 set forth above in Example 1 were followed for all the participants undergoing the surgeries.
The primary clinical outcome measured was PONV. The secondary outcome measured was maximum postoperative pain scores. Episodes of PONV were recorded as a binary outcome from nursing reports on electronic health records. Analgesic efficacy was described in terms of patient self-reported pain scores. Pain scores were collected every 2 to 4 h using a self-reported numeric rating scale ranging from 0 to 10.
Analyses were performed using the dominant, additive or recessive models to explore for possible associations. Associations were tested using ‘A’ as the referent allele and ‘a’ as the alternative allele under dominant model (i.e. AA vs. Aa/aa), additive model (i.e. AA vs. Aa vs. aa) and recessive model (i.e. AA/Aa vs. aa). Linear regression was used to investigate SNP associations for pain score. Poisson regression was used to investigate SNP associations for PONV. Unadjusted as well as covariate-adjusted analyses, adjusted for weight, race, age, surgery type and sex were performed. For primary outcome, PONV, the SNP's rate ratios (i.e. exponential of the slope parameter in the Poisson regression), p-values and 95% Cis were computed. For postoperative pain score, the SNPs' effect (i.e. the slope parameter in the linear regression model), p-values, and 95% confidence intervals (CIs) were computed.
Because eight SNPs were used for the final analysis, a Bonferroni correction was used for multiple comparisons for the primary outcome measure, which yielded a significance threshold of p=0.00625 [p=0.05/8 SNPs)].

[3] = tested on: children undergoing PE and PSF surgeries; assay: Postoperative opioid use, pain scores, FDI and hospital stay with multidose methadone-based multimodal analgesia (Example 1); format: in vivo, human; details: for postoperative opioid use (morphine equivalents): current Example
[4] = cited from earlier work
[5] = tested on: adolescents undergoing PSF; details: cited from earlier work; for postoperative opioid use (morphine equivalents): another adolescent PSF study, single larger intraoperative methadone dose; for mean morphine equivalent dose 0-72 hour: historical cohort
[6] = Plasma R-, S- and total methadone concentrations after multiple small perioperative methadone doses (Example 1); details: human, in vivo, 0.1 mg/kg/dose
[7] = tested on: children undergoing PE and PSF surgeries; assay: Safety of multidose perioperative methadone: respiratory depression, PONV, QTc (Example 1)
AAG = details: plasma; cited from earlier work
[8] = tested on: adolescents undergoing PSF that received methadone; assay: Preliminary pharmacogenetic associations in 50 PSF adolescents that received methadone; format: in vivo, human
Excerpt: OPRM1 rs1799971 is also associated with susceptibility to dependence.

[9] = tested on: children undergoing PE and PSF surgeries; assay: Regression of clinical outcomes on pharmacokinetic measures (Example 1, Table 3); details: logistic regression; CI in next column
[10] = postoperative day 1, median (IQR)
[11] = postoperative day 2, median (IQR)
[12] = postoperative day 3, median (IQR)
[13] = postoperative day 4, median (IQR)
[14] = postoperative day 5, median (IQR)

CCC(=O)C(C[C@@H](C)N(C)C)(c1ccccc1)c1ccccc1 [R-methadone]
fractional change of V2 per active allele rs17650 (ORM1) [1]: 0.443 | proportional change of V2 per unit AAG conc from 94.76 [1]: 0.00291

CCC(=O)C(CC(C)N(C)C)(c1ccccc1)c1ccccc1 (racemic) [methadone]
Morphine equivalent - Fusion ([2]; mean): 0.6 mg/kg | Morphine equivalent - Pectus ([2]; mean): 0.7 mg/kg | Length of hospital stay ([2]; mean, 53 children): 2.7 days | Beta, patient reported pain scores ([2]; rs4803419, Recessive model TT vs CC/TT (so in the source), Covariate adjusted analysis): −1.70 | Beta, patient reported pain scores ([2]; rs4803419, Recessive model TT vs CC/TT (so in the source), Unadjusted analysis): −1.78 | Beta, patient reported pain scores ([2]; rs10500282, Additive Model CC vs TT, Covariate adjusted analysis): −2.61 | Beta, patient reported pain scores ([2]; rs10500282, Additive Model CC vs TT, Unadjusted analysis): −2.00 | Beta, patient reported pain scores ([2]; rs10500282, Additive Model TC vs TT, Covariate adjusted analysis): 1.31 | Beta, patient reported pain scores ([2]; rs10500282, Additive Model TC vs TT, Unadjusted analysis): 1.33 | Beta, patient reported pain scores ([2]; rs10500282, Dominant model TC/CC vs TT, Covariate adjusted analysis): 1.18 | Beta, patient reported pain scores ([2]; rs10500282, Dominant model TC/CC vs TT, Unadjusted analysis): 1.16 | Beta, patient reported pain scores ([2]; rs11882424, Additive Model TC vs TT, Covariate adjusted analysis): 2.12 | Beta, patient reported pain scores ([2]; rs11882424, Additive Model TC vs TT, Unadjusted analysis): 2.19 | Beta, patient reported pain scores ([2]; rs11882424, Dominant model TC/CC vs TT, Covariate adjusted analysis): 2.12 | Beta, patient reported pain scores ([2]; rs11882424, Dominant model TC/CC vs TT, Unadjusted analysis): 2.19 | mean morphine equivalent, multi-dose methadone regimen ([3]; 0-72 hour, standard deviation 28.4): 113.25 | median FDI score ([3]; 3 months postoperatively, median (IQR)): 4 (0-9.5) | median FDI score ([3]; 6 months postoperatively, median (IQR)): 2 (0-4) | median FDI score ([3]; 12 months postoperatively, median (IQR)): 0 (0-3.5) | Average pain scores during the entire in-hospital stay ([3]; PE): 3.60 | median hospital stay ([3]; PE): 4 days | Average pain scores during the entire in-hospital stay ([3]; PSF): 3.95 | median hospital stay ([3]; PSF): 3 days | median total opioid usage ([3]; following PE): 2.6 mg/kg | median total opioid usage ([3]; following PSF): 2.1 mg/kg | Average morphine equivalent dose ([3]; median (IQR)): 0.66 (0.59-0.74) mg/kg/day | median usage of the common rescue opioids ([3]; not different between the surgeries): 0.03 mg/kg morphine equivalents | Average pain score ([3]; numeric rating scale 0 to 10, median (IQR)): 3.53 (2.73-4.80) | postoperative opioid use (morphine equivalents) ([3]; postoperative day 1): 0.6 mg/kg | Pain scores [3, 10]: 3.5 (2.3-5.1) | morphine equivalent units, including methadone doses [3, 10]: 0.61 (0.56-0.65) MEU/kg | postoperative opioid use (morphine equivalents) ([3]; postoperative day 2): 0.88 mg/kg | Pain scores [3, 11]: 3.4 (2.9-4.6) | morphine equivalent units, including methadone doses [3, 11]: 0.88 (0.68-1.06) MEU/kg | postoperative opioid use (morphine equivalents) ([3]; postoperative day 3): 0.64 mg/kg | Pain scores [3, 12]: 3.7 (2.0-5.2) | morphine equivalent units, including methadone doses [3, 12]: 0.58 (0.37-0.85) MEU/kg | Pain scores [3, 13]: 3.8 (2.7-5.0) | morphine equivalent units, including methadone doses [3, 13]: 0.42 (0.35-0.58) MEU/kg | Pain scores [3, 14]: 3.7 (3.3-4.4) | morphine equivalent units, including methadone doses [3, 14]: 0.59 (0.21-0.67) MEU/kg | mean morphine equivalent dose in the first 72 postoperative hours ([3]; printed as mean (95% CI: 98.5-131.8)): 120.2 mg | opioid use reduction ([3]; vs historical PCA opioids without intraoperative methadone, first 72 postoperative hours): 58.67% | opioid use reduction ([3]; vs historical single intraoperative methadone of 0.1 mg/kg): 59.12% | opioid use reduction ([3]; vs historical single intraoperative methadone of 0.2 mg/kg): 47.81% | opioid use reduction ([3]; vs historical single intraoperative methadone of 0.3 mg/kg): 48.76% | contribution of CYP3A4 to the metabolism of the drug ([4]; in vivo): more than 50% | parent drug eliminated in urine ([4]; in vivo): 10-20% | inter-individual variation in blood levels after methadone administration ([4]; up to): ≤ 17 fold | incidence of postoperative respiratory depression ([5]; 7 out of 31 receiving intraoperative methadone, first 48 hours): 22.6% | postoperative opioid use (morphine equivalents) ([5]; postoperative day 1): 0.54 mg/kg | postoperative opioid use (morphine equivalents) ([5]; postoperative day 2): 1.08 mg/kg | postoperative opioid use (morphine equivalents) ([5]; postoperative day 3): 1.29 mg/kg | mean morphine equivalent dose 0-72 hour ([5]; single intraoperative methadone 0.3 mg/kg): 221 | mean morphine equivalent dose 0-72 hour ([5]; single intraoperative methadone of 0.1 mg/kg): 277 mg | PONV incidence in other studies ([5]; in vivo): 33-38% | incidence of respiratory depression ([5]; large observational study, intraoperative methadone of 0.14 mg/kg and postoperative opioids): 37% | Cmax [6]: 24.7 ng/mL | episodes of PONV ([7]; 38 children): 18 | respiratory depression observed ([7]; 38 children receiving multiple dose of methadone): 0% | respiratory depression (in words) ([7]; 38 children, 95% Wilson binomial confidence [0, 0.09]): No child in this Example had respiratory depression; also recorded: no patient had respiratory depression | Postoperative QTc ([7]; median (IQR), Bazett's formula): 431 (414-440) ms | postoperative QTc longer than preoperative QTc interval ([7]; median, IQR -10, 28): 9 ms | patients with PONV ([7]; of 38 children): 12 | bound to AAG (AAG): 80-90% | average in-hospital opioid use ([8]; OPRM1 rs1799971 AA genotype): 33.2 ± 8.0 mg | average in-hospital opioid use ([8]; OPRM1 rs1799971 GG and GA genotype): 40.1 ± 6.1 mg | hospital stay ([8]; adolescents other than FAAH rs3766246 wild type): 2.6 ± 0.8 days | lower in-hospital opioid use, homologous/heterologous variants of FAAH rs3766246 and rs4141964 ([8]; compared with the wild type): 15-20% | higher average in-hospital opioid use, OPRM1 rs1799971 GG and GA vs AA genotype ([8]; in vivo): 20% | longer hospital stay, wild type of FAAH rs3766246 ([8]; than others): 1 days | OR, Nausea/Vomiting vs Methadone dose per kg per day [9]: 3.1e3

CCC(=O)C(C[C@H](C)N(C)C)(c1ccccc1)c1ccccc1 [S-methadone]
fractional change of V2 per active allele rs17650 (ORM1) [1]: 0.526 | proportional change of V2 per unit AAG conc from 94.76 [1]: 0.00192
